Activity calls are given as the source filed them.
Columns and labels:
[1] = test system: BJ; experiment: cells; format: functional, cell-based; conditions: Homo sapiens
[2] = biological target: Luciferin 4-monooxygenase (Photinus pyralis, UniProt P08659); experiment: firefly luciferase enzyme inhibitors, dose response, biochemical, luminescence (AID 1891)
[3] = biological target: Genome polyprotein (dengue virus type 2, UniProt P29990); experiment: Dengue-2 NS5 methyltransferase inhibitors, primary screen, biochemical, confirmation dose response (AID 588689); format: functional
[4] = test system: BJ; experiment: cytotoxicity toward BJ-TERT fibroblasts, dose response, cell-based, RAS-independent, luminescence (AID 1933); format: functional; conditions: Homo sapiens
[5] = test system: Vero; experiment: Vero cell cytotoxicity, cytotoxicity control for flavivirus capping enzyme inhibitors (AID 588742); format: functional; conditions: Chlorocebus sabaeus
[6] = test system: BJ; experiment: cytotoxicity toward BJ-TERT-LT-ST fibroblasts, dose response, cell-based, RAS-independent, luminescence (AID 1935); format: functional; conditions: Homo sapiens;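 further: BJ fibroblasts immortalized with TERT plus LT and ST oncogenes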
[7] = cytotoxicity toward DRD oncogenic fibroblasts, dose response, cell-based, non-viral oncogenic, luminescence (AID 1934); format: functional; conditions: Homo sapiens
[8] = Luminescence Cell-Based Dose Confirmation HTS to Identify Inhibitors of Platelet Dense Granule Release. [Related pubchem assays: 1663 (Primary HTS), 1678 (Summary of Project)]; format: functional
[9] = biological target: T1, Sentrin-specific protease 8 (Homo sapiens, UniProt Q96LD8); format: functional
T1 sequence (Q96LD8 whole entry): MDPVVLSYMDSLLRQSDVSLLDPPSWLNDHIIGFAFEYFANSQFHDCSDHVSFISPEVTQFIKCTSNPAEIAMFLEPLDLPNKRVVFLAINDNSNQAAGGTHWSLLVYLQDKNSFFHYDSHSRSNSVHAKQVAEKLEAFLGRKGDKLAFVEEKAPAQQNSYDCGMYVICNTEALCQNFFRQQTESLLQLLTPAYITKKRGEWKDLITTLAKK

[10] = biological target: Glucose-6-phosphate 1-dehydrogenase (Homo sapiens, UniProt P11413); experiment: human G6PD enzyme inhibitors, dose response, selectivity assay for P. falciparum G6PD inhibitor project, biochemical, fluorescence (AID 504792); format: functional
[11] = biological target: T1, Sentrin-specific protease 8; format: functional; remark: listed apart in the source
[12] = biological target: Beta-galactosidase (Escherichia coli, UniProt Q8VNN2); experiment: Dose response counterscreen for EBI2 assay utilizing the enzyme, b-galactosidase.; format: functional
[13] = biological target: Heat shock protein HSP 90-alpha (Homo sapiens, UniProt P07900); format: functional, organism-based
[14] = biological target: T2, Carboxy-terminal domain RNA polymerase II polypeptide A small phosphatase 1 (Homo sapiens, UniProt Q9GZU7); experiment: inhibitors of CTDSP1, concentration-response testing, biochemical assay, absorbance-based, actives from ultra-high-throughput screening (AID 540297); format: functional
T2 sequence (Q9GZU7 whole entry): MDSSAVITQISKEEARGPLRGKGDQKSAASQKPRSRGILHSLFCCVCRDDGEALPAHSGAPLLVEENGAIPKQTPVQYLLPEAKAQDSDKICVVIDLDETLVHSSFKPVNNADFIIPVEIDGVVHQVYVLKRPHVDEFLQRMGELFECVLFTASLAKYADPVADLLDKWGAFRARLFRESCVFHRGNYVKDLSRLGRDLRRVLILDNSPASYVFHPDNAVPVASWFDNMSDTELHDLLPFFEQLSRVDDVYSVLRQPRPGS

[15] = biological target: T3, Aminopeptidase N (Plasmodium falciparum FcB1/Columbia, UniProt O96935); experiment: P. falciparum M1AAP inhibitors, biochemical, fluorogenic H-Leu-NHMec substrate, 1536-well (AID 1445); design: species or system Plasmodium falciparum 3D7, 3D7
T3 sequence (O96935 whole entry): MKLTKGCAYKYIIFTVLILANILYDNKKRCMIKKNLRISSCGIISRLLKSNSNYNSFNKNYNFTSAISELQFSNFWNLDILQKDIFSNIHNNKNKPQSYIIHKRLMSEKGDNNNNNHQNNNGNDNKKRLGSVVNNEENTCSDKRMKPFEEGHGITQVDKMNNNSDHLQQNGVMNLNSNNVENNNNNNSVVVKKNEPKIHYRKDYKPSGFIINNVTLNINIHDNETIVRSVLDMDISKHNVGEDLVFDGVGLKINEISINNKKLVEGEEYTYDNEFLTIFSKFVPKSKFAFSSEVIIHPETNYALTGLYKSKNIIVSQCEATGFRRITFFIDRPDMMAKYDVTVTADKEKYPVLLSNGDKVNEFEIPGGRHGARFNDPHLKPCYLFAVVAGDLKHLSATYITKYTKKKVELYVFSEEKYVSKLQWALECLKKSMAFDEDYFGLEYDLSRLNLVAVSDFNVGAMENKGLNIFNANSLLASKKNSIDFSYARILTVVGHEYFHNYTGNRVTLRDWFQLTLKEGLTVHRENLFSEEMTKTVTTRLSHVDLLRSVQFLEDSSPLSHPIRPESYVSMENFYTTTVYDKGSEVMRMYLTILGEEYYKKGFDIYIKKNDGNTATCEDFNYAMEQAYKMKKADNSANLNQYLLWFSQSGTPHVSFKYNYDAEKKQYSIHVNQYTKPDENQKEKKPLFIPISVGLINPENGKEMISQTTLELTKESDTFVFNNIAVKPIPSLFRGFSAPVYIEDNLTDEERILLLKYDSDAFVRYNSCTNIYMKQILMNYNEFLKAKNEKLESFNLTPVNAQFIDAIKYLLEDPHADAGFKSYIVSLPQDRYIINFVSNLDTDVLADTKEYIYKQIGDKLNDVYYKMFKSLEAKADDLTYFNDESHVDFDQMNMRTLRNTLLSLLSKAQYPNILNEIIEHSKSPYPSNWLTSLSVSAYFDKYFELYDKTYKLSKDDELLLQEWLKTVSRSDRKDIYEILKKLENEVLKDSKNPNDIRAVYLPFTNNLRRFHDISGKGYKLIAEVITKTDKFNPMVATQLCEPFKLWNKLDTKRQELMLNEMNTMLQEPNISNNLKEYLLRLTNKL

[16] = biological target: Histone-lysine N-methyltransferase NSD2 (Homo sapiens, UniProt O96028); format: biochemical
Sequence of Histone-lysine N-methyltransferase NSD2 (O96028 whole entry): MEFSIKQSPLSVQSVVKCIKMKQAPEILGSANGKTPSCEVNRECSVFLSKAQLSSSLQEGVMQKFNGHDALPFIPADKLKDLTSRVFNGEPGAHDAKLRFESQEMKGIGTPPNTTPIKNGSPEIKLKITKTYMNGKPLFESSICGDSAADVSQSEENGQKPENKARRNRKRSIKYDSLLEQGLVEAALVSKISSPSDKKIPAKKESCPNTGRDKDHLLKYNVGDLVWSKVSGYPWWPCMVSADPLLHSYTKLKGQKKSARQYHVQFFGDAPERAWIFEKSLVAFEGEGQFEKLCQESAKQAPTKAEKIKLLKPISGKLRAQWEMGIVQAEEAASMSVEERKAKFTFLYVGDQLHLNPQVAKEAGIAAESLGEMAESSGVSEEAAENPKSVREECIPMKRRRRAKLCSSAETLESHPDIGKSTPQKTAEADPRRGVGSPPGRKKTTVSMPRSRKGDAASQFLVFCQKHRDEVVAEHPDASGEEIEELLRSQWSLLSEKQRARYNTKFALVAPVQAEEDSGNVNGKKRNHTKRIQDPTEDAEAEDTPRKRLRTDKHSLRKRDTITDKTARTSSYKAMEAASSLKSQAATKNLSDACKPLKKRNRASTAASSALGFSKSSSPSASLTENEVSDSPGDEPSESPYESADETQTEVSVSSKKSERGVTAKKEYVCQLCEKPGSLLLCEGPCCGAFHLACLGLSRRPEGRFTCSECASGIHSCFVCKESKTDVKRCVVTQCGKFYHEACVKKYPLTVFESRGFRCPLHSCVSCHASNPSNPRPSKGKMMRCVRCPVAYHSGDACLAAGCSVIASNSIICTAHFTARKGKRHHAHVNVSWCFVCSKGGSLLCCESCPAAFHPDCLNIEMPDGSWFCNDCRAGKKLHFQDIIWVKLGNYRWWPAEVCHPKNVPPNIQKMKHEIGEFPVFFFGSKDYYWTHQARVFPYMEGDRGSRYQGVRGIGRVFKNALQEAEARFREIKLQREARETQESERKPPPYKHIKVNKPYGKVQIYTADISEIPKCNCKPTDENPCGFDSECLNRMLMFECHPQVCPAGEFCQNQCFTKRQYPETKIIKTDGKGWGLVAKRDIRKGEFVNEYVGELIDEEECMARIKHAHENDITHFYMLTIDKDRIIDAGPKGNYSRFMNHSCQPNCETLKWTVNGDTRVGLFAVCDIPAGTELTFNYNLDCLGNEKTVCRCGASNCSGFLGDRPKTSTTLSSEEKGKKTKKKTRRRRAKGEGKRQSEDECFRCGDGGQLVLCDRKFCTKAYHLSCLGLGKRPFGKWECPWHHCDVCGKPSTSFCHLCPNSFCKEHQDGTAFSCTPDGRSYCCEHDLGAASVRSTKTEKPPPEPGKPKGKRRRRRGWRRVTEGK

Sequence of Beta-galactosidase (Q8VNN2 whole entry): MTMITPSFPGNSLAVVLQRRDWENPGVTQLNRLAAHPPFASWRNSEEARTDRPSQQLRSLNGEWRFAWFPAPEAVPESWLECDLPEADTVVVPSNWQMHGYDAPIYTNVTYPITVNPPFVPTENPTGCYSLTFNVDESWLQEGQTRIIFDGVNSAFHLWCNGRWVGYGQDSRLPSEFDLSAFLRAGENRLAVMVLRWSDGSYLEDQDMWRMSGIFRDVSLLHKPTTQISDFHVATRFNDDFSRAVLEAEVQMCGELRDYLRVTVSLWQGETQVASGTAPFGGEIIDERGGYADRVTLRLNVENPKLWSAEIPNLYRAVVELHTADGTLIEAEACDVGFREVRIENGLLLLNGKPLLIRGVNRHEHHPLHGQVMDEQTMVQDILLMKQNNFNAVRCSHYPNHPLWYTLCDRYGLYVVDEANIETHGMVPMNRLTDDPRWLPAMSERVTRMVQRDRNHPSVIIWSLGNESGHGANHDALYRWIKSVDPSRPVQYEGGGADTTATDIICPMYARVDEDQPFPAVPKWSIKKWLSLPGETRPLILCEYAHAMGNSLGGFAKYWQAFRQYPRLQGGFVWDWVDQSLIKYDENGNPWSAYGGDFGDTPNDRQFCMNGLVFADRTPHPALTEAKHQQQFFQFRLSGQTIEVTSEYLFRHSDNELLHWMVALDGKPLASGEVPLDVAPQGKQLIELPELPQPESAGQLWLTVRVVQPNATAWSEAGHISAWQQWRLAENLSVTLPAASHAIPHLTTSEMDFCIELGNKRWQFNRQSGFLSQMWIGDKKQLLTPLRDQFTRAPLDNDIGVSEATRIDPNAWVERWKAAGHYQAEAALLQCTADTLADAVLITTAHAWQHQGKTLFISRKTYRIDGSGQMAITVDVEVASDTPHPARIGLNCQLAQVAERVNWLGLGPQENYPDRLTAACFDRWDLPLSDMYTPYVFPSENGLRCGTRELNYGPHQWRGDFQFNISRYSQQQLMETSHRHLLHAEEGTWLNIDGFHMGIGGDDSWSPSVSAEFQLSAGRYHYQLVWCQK
Sequence of Luciferin 4-monooxygenase (P08659 whole entry): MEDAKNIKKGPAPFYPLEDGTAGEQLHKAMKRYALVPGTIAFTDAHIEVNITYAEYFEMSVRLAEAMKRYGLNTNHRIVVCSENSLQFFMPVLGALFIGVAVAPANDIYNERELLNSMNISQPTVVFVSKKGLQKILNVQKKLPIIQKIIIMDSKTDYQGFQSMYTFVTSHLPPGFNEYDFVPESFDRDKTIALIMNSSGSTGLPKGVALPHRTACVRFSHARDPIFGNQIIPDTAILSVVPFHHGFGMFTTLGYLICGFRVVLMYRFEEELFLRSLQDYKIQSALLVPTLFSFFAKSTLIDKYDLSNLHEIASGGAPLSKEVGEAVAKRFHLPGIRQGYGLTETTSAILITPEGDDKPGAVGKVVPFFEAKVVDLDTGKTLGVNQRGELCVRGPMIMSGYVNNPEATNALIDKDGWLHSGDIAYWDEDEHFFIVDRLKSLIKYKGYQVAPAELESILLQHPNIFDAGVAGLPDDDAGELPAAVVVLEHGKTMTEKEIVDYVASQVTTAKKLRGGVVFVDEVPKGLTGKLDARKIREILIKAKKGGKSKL
Sequence of Glucose-6-phosphate 1-dehydrogenase (P11413 whole entry): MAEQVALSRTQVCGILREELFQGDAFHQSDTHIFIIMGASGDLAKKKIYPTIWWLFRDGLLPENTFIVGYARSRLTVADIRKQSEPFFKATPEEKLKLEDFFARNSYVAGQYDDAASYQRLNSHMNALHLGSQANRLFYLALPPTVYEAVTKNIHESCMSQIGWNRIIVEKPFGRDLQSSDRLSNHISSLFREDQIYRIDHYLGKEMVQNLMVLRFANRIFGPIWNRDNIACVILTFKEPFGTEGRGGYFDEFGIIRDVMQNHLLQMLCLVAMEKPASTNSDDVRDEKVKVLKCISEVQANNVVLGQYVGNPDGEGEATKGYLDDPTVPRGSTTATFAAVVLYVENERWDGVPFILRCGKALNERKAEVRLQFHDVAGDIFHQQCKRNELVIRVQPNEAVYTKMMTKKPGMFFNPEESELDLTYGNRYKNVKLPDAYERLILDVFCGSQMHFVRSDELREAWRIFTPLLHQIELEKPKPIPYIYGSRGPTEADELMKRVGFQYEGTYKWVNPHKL
Sequence of Genome polyprotein (P29990 2492-3391 limits assumed): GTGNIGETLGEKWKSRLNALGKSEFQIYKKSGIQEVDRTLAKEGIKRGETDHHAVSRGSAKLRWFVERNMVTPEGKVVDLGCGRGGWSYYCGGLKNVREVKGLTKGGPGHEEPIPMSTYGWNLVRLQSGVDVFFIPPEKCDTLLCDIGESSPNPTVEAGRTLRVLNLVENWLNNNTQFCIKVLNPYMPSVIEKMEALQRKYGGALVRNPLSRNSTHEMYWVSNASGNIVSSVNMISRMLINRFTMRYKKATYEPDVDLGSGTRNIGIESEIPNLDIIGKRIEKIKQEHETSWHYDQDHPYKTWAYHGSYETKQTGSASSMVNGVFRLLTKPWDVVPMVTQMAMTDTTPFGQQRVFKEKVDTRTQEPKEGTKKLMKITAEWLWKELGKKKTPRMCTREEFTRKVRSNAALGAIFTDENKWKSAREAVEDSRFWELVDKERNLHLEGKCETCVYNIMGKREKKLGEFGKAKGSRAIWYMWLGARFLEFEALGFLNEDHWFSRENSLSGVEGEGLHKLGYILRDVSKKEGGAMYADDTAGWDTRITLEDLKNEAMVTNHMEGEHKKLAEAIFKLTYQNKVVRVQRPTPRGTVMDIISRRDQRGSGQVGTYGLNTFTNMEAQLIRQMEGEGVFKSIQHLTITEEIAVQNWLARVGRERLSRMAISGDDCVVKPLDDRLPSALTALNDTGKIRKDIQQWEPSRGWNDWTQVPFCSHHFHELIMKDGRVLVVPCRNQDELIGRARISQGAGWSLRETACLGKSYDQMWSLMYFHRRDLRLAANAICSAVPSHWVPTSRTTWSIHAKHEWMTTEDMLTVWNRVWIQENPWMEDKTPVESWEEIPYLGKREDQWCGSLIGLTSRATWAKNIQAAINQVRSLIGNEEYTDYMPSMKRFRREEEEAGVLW

For `COc1cccc2nc3cc(C)c(C)cc3nc12`, which EC50 [1] is on record?
Its EC50 is 3.05 µM (active).

And the EC50 [2]?
The EC50 was 0.923 µM (active).

And the IC50 [3]?
Its IC50 is 62.2 µM (active).

And the EC50 [4]?
Its EC50 is 3.31 µM (active).

What about the CC50 [5] of the same compound?
The CC50 was 11.7 µM (active).

And the EC50 [6]?
Its EC50 is 12.2 µM (inconclusive).

What about the EC50 [7] of the same compound?
Its EC50 is 3.01 µM (active).

What about the EC50 [8] of the same compound?
The EC50 was 7.02 µM (active).

What about the IC50 [9] of the same compound?
The IC50 was 8.48 µM (active).

What about the IC50 [10] of the same compound?
Its IC50 is 37.1 µM (inactive).

And the IC50 [11]?
Its IC50 is 8.2 µM (active).

Which IC50 [12] does the source give for `COc1ccc(OCC(=O)N2CCN(c3nnc(-c4ccc(C)cc4)c4ccccc34)CC2)cc1` here?
Its IC50 is > 80 µM (inactive).

What does the source list for `CCOc1ccc(Br)cc1C1=NN(C(C)=O)C(c2ccc([N+](=O)[O-])s2)O1` (stereo not drawn)?
IC50 [9]: 11 µM (active); IC50 [11]: 9.04 µM (active); AC50 [13]: 7.83 µM (active)

Which IC50 [14] does the source give for `Cc1ccc(S(=O)(=O)NC2=NC(=O)/C(=C/c3ccc(Br)o3)S2)cc1` here?
The IC50 was 7.47 µM (active).

What about the IC50 [15] of the same compound?
The IC50 was 42.1 µM (active).

What about the AC50 [16] of the same compound?
Its AC50 is 14.1 µM (active).
